Data published in ChEMBL document CHEMBL2021890, “A new class of prolylcarboxypeptidase inhibitors, part 1: discovery and evaluation” (Bioorg Med Chem Lett, 2012).

Assays:
[1] = Clearance in mouse at 0.5 mg/kg, iv and 1 mg/kg, po; assay type: ADME, organism-based; conditions: in vivo
[2] = Metabolic stability in mouse liver microsomes after 30 mins by LC/MS analysis; assay type: ADME, Microsome; conditions: read-out: Stability
[3] = molecular target: T1, Lysosomal Pro-X carboxypeptidase (Mus musculus, UniProt Q7TMR0); assay: Inhibition of mouse PrCP
T1 sequence (Q7TMR0 whole entry): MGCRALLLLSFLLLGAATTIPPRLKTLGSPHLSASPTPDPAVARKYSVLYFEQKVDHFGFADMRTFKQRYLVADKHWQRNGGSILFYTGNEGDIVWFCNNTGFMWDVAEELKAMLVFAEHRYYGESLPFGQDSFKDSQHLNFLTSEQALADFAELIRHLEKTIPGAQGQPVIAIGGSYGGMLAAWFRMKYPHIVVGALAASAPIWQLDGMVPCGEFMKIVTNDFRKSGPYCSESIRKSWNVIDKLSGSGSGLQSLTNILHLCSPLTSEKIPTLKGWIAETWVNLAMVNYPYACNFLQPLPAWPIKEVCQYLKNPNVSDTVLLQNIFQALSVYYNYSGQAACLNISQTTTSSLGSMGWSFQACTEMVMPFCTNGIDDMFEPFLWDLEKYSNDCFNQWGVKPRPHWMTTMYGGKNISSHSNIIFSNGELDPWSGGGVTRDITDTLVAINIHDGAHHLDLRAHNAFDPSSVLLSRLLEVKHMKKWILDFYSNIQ

[4] = Oral bioavailability in mouse at 1 mg/kg; assay type: ADME, organism-based; conditions: in vivo
[5] = Volume of distribution in mouse at 0.5 mg/kg, iv and 1 mg/kg, po; assay type: ADME, organism-based; conditions: in vivo
[6] = Plasma protein binding in 10% mouse plasma assessed as percentage unbound; assay type: ADME, cell-free
Mus musculus [7] = assay: Ex-vivo inhibition of PrCP in heat inactivated 100% plasma of po dosed mouse by FRET analysis; assay type: functional, organism-based
[8] = Metabolic stability in human liver microsomes after 30 mins by LC/MS analysis; assay type: ADME, Microsome; conditions: read-out: Stability
Mus musculus [9] = assay: Dose normalized AUC in mouse at 1 mg/kg, po; assay type: ADME, organism-based; parameters: dose 1 mg/kg, route oral; conditions: in vivo
[10] = Half life in mouse at 0.5 mg/kg, iv and 1 mg/kg, po; assay type: ADME, organism-based; conditions: in vivo
[11] = Plasma protein binding in 10% human plasma assessed as percentage unbound; assay type: ADME, cell-free
Mus musculus [12] = assay: Ex-vivo inhibition of PrCP in heat inactivated 25% plasma of po dosed mouse by FRET analysis; assay type: functional, organism-based
Mus musculus [13] = assay: Ex-vivo inhibition of po dosed mouse PrCP in the absence of plasma by FRET analysis; assay type: functional, organism-based
Mus musculus [14] = assay: Dose normalized AUC in mouse at 10 mg/kg, po; assay type: ADME, organism-based; parameters: dose 10 mg/kg, route oral; conditions: in vivo
[15] = Volume of distribution in mouse at 2 mg/kg, iv and 10 mg/kg, po; assay type: ADME, organism-based; conditions: in vivo
[16] = Oral bioavailability in mouse at 10 mg/kg; assay type: ADME, organism-based; conditions: in vivo
[17] = Half life in mouse at 2 mg/kg, iv and 10 mg/kg, po; assay type: ADME, organism-based; conditions: in vivo
[18] = Clearance in mouse at 2 mg/kg, iv and 10 mg/kg, po; assay type: ADME, organism-based; conditions: in vivo
[19] = Drug uptake in C57 mouse plasma at 80 mg/kg, po after 20 hrs by LC/MS analysis; assay type: ADME, organism-based; parameters: dose 80 mg/kg, route oral
Mus musculus [20] = assay: Ex-vivo inhibition of PrCP in heat inactivated 100% plasma of C57 mouse assessed as target engagement at 80 mg/kg, po after 20 hrs calculated as [cmpd]plasma/([cmpd]plasma + Ki (heat inactivated plasma))x100; assay type: functional
Mus musculus [21] = assay: Ex-vivo inhibition of PrCP in heat inactivated 100% plasma of C57 mouse assessed as target engagement at 80 mg/kg, po after 20 hrs by FRET analysis; assay type: functional
[22] = Drug uptake in C57 mouse brain at 80 mg/kg, po after 20 hrs by LC/MS analysis; assay type: ADME, organism-based; parameters: dose 80 mg/kg, route oral; conditions: read-out: Drug uptake
[23] = Apparent permeability across pig LLC-PK1 cells at 1 uM; assay type: ADME, cell-based, Sus scrofa
[24] = Ratio of drug level in brain to plasma in C57 mouse at 80 mg/kg, po after 20 hrs by LC/MS analysis; assay type: ADME, organism-based; parameters: dose 80 mg/kg, route oral; conditions: read-out: BPR
[25] = Drug uptake in C57 mouse brain at 30 mg/kg, po after 20 hrs by LC/MS analysis; assay type: ADME, organism-based; parameters: dose 30 mg/kg, route oral; conditions: read-out: Drug uptake
Mus musculus [26] = assay: Ex-vivo inhibition of PrCP in heat inactivated 100% plasma of C57 mouse assessed as target engagement at 30 mg/kg, po after 20 hrs by FRET analysis; assay type: functional
[27] = Drug uptake in C57 mouse plasma at 30 mg/kg, po after 20 hrs by LC/MS analysis; assay type: ADME, organism-based; parameters: dose 30 mg/kg, route oral
[28] = Ratio of drug level in brain to plasma in C57 mouse at 30 mg/kg, po after 20 hrs by LC/MS analysis; assay type: ADME, organism-based; parameters: dose 30 mg/kg, route oral; conditions: read-out: BPR
Mus musculus [29] = assay: Ex-vivo inhibition of PrCP in heat inactivated 100% plasma of C57 mouse assessed as target engagement at 30 mg/kg, po after 20 hrs calculated as [cmpd]plasma/([cmpd]plasma + Ki (heat inactivated plasma))x100; assay type: functional

Structure (SMILES)	clearance [1] [mL/min/kg]	remaining at 0.5 h [2] [%]	IC50 [3] [nM]	bioavailability [4] [%]	Vd [5] [L/kg]	fraction unbound [6]	Ki (Mus musculus [7]) [nM]	remaining at 0.5 h [8] [%]	AUC/dose (Mus musculus [9]) [µM·kg·h/mg]	half-life [10] [h]	fraction unbound [11]	Ki (Mus musculus [12]) [nM]	Ki (Mus musculus [13]) [nM]	other results
Cc1cc(C2CCN(C(=O)[C@@H]3CN(C(C)(C)C)C[C@H]3c3ccc(F)cc3F)CC2)n(-c2ccc(Cl)c(Cl)c2)n1	43	18	1	38	11	0.019	18.4	45	0.26	2.7	0.02	5.9	1.7	–
O=C([C@@H]1CNC[C@H]1c1ccc(F)cc1F)N1CCC(c2ccnn2-c2ccc(F)c(Cl)c2)CC1	60	59	3.7	27	8	0.1	21.9	44	0.16	1.6	0.12	7.7	2.9	–
Cc1cc(C2CCN(C(=O)[C@@H]3CN(C(C)(C)C)C[C@H]3c3ccc(F)cc3F)CC2)n(-c2ccc(F)c(Cl)c2)n1	68	43	0.8	59	19	0.16	2.5	38	0.26	3.1	0.16	1.3	0.9	–
Cc1cc(C2CCN(C(=O)[C@@H]3CN(C(C)(C)C)C[C@H]3c3ccc(F)cc3F)CC2)n(-c2ccc(Cl)cc2F)n1	51	–	2	43	16	0.21	5.5	–	0.25	3.6	0.17	2.5	1.5	–
Cc1cc(C2CCN(C(=O)[C@@H]3CNC[C@H]3c3ccc(F)cc3F)CC2)n(-c2cc(Cl)ccc2Cl)n1	173	–	4.4	23	19	0.05	23	–	0.04	1.4	0.12	8.9	4.2	–
Cc1cc(C2CCN(C(=O)[C@@H]3CNC[C@H]3c3ccc(F)cc3F)CC2)n(-c2ccc(F)c(Cl)c2)n1	–	–	8	–	–	–	54.5	–	–	–	–	19.9	8.3	–
Cc1cc(C2CCN(C(=O)[C@@H]3CNC[C@H]3c3ccc(F)cc3F)CC2)n(-c2ccc(Cl)c(Cl)c2)n1	–	–	15	–	–	–	164	–	–	–	–	55.7	19.6	–
Cc1cc(C2CCN(C(=O)[C@@H]3CN(C(C)(C)C)C[C@H]3c3ccc(F)cc3F)CC2)n(-c2cc(Cl)ccc2F)n1	–	37	1.4	–	–	0.09	2.8	34	–	–	0.14	1.6	1.2	–
Cc1nc(C2CCN(C(=O)[C@@H]3CN(C(C)(C)C)C[C@H]3c3ccc(F)cc3F)CC2)n(-c2ccc(Cl)c(C)c2)n1	–	22	10	–	–	0.13	1.4	11	–	–	0.16	1.1	1	AUC/dose (Mus musculus [14]): 0.05 µM·kg·h/mg; Vd [15]: 17 L/kg; bioavailability [16]: 20%; half-life [17]: 1.8 h; clearance [18]: 128 mL/min/kg
Cc1nc(C2CCN(C(=O)[C@H]3CN(C(C)(C)C)C[C@@H]3c3ccc(F)cc3F)CC2)n(-c2ccc(Cl)c(C)c2)n1	127	6	11	13	20	0.19	15	29	0.03	2.1	0.1	6	3	–
Cc1cc(C2CCN(C(=O)[C@@H]3CN(C(C)(C)C)C[C@H]3c3ccc(F)cc3F)CC2)n(-c2ccc(Cl)c(F)c2)n1	–	–	4.8	–	–	–	25.1	–	–	–	–	8.9	3.6	–
CC(C)(C)N1C[C@@H](C(=O)N2CCC(c3nnnn3-c3ccc(Cl)cc3)CC2)[C@H](c2ccc(F)cc2F)C1	163	10	44	6.4	17	0.42	–	5	0.01	1.8	0.32	–	–	–
Cc1cc(C2CCN(C(=O)[C@@H]3CN(C(C)(C)C)C[C@H]3c3ccc(F)cc3F)CC2)n(-c2ccc(F)c(F)c2)n1	71	52	9.1	46	13	0.16	18.3	39	0.2	1.9	0.25	9.3	6.4	concentration at 20 h [19]: 1910 nM; inhibition in vivo at 80 mg/kg (Mus musculus [20]): 99.1%; inhibition in vivo at 80 mg/kg (Mus musculus [21]): 99.4%; concentration at 20 h [22]: 1180 nM; Papp at 1 µM [23]: 28 ×10⁻⁶ cm/s; Kp at 20 h [24]: 0.63
Cc1cc(C2CCN(C(=O)[C@@H]3CN(C(C)(C)C)C[C@H]3c3ccc(F)cc3F)CC2)n(-c2cc(Cl)ccc2Cl)n1	48	43	0.4	31	13	0.17	0.9	30	0.19	2.9	0.11	0.5	0.4	concentration at 20 h [25]: 698 nM; inhibition in vivo at 30 mg/kg (Mus musculus [26]): 97.7%; concentration at 20 h [27]: 547 nM; Kp at 20 h [28]: 1.35; Papp at 1 µM [23]: 26.9 ×10⁻⁶ cm/s; inhibition in vivo at 30 mg/kg (Mus musculus [29]): 99.8%
Cc1cc(C2CCN(C(=O)[C@@H]3CN(C(C)(C)C)C[C@H]3c3ccc(F)cc3F)CC2)n(-c2ccc(F)cc2F)n1	63	–	12	54	14	–	14.5	–	0.26	2.5	–	7.5	5.2	–
Cc1cc(C2CCN(C(=O)[C@@H]3CN(C(C)(C)C)C[C@H]3c3ccc(F)cc3F)CC2)n(-c2ccc(Cl)cc2Cl)n1	57	39	1	61	16	0.16	6	31	0.31	3.1	0.1	2.3	1.1	–
